Results: patent publication US20150225374A1, “4-INDAZOLYLAMINO-2-(2-(INDOL-3-YL)ETHYL)AMINOPYRIMIDINES USEFUL FOR THE TREATMENT OF CANCER” (NOVIGA RESEARCH AB, priority 2012, published 2015)
pEC50, pIC50: −log10 of the molar value.

Legend:
[1] = test system: colchicine site on tubulin (Porcine brain tubulin); assay: Colchicine displacement assay, fluorometric detection; format: binding; conditions: 2 μM porcine brain tubulin, 2 μM colchicine, compound at 20 μM, 2 h; control = colchicine bound to tubulin
Procedure: To study whether the compounds bind to the colchicine site on tubulin, a colchicine displacement assay using fluorometric detection was performed as previously described (Bhattacharyya B. et al.; Proc Natl Acad Sci U S A 1974, 71:2627-31; Risinger A L. et al.; J Pharmacol Exp Ther 2011: 336:652-60). Porcine brain tubulin at 2 μM (Cytoskeleton) in a buffer consisting of 80 mM PIPES, 2 mM MgCl2, 0.5 mM EGTA at pH 7.0 with addition of 1 mM GTP, was incubated alone, with 2 μM colchicine or with 2 μM colchicine in the presence of test compounds or reference compound combretastatin A4 at 20 μM for 2 h in a black half-area 96-well plate (Corning Inc, Corning, N.Y., USA). Thereafter, the fluorescence was measured using a FLUOStar Optima (BMG Labtech) at an excitation of 380 nm and emission of 440 nm. The results are presented as percent of control i.e. colchicine bound to tubulin.

[2] = test system: VEGF-induced cord formation; assay: VEGF-driven vascular cord formation, stem cell co-culture model of angiogenesis (StemKit), neo-angiogenic setting; format: cell-based
Procedure: (§1) To study the vascular disrupting properties of one of the compounds, example 3, an evaluation of its inhibitory and disruptive effects on VEGF-driven vascular cord formation in an in vitro stem cell co-culture model of angiogenesis (StemKit, Essen Bioscience) was carried out.

established vessels = assay: Stem cell co-culture model of angiogenesis (StemKit), established vessels; format: cell-based; conditions: doses from 3 nM up to 100 nM, example 3 and combretastatin A4 had equal potency
Procedure: as §1

[3] = test system: CCRF-CEM cancer cells - leukemia; assay: Fluorometric Microculture Cytotoxicity Assay (FMCA), CCRF-CEM; format: cell-based; conditions: Homo sapiens, 72 h, CCRF-CEM acute lymphoblastic leukemia cell line
Text: (§2) The Fluorometric Microculture Cytotoxicity Assay, FMCA (Larsson, R., et al.; Anticancer Res, 1989, 9, 1111-1119), is a three day non-clonogenic microplate-based cell viability assay used for measurement of the cytotoxic and/or cytostatic effect of compounds in vitro (Lindhagen, E. et al.; Nat. Protoc., 2008, 3, 1364-1369). FMCA represents a valuable method to measure cytotoxicity in a number of cell types, both cell lines and primary cells from patients (Larsson, R., et al.; Int. J. Cancer, 1992, 50, 177-185; Fridborg, H., et al.; Eur. J. Cancer, 1999. 35, 424-432; Dhar, S., et al.; Br. J. Cancer, 1996, 74, 888-896).
(§3) FMCA is based on the principle that fluorescein diacetate (FDA) is converted to the fluorescent probe fluorescein by esterases […]. For experiments, 96-well microplates are prepared with compounds and stored at −20° C. or −70° C. until use. Cells are then seeded into the drug-prepared plates and placed in an incubator for 72 h. On the last day of incubation, the plates are washed and a buffer containing FDA is added and incubated with the cells for 45 minutes. Finally the fluorescence per well is measured in a fluorometer and a Survival Index % (SI) for each compound-treated well is calculated with the equation: Compound-treated cells minus blank divided by control cells minus blank. A high SI-value indicates a large percentage of living cells and vice versa.
For experiments with compounds of the invention, 96-well plates were prepared as follows: Compounds were dissolved in DMSO to 10 mM and stored at −20° C. The test compounds were thawed, protected from light, mixed, and 3 μl stock solution was added to test tubes containing 297 μl culture medium RPMI-1640, to give the concentration 100 μM. Then, compounds were serially diluted to concentrations ten times higher than the desired test concentrations. Finally, 20 μl of each compound solution was added in duplicates to wells in two V-bottomed 96-well plates. The plates were stored at −20° C. until use.
On the day of cell seeding, 180 μl of cell suspension was added to each well in the two assay plates. The final concentrations of compounds tested were 10 μM, 1 μM, 0.1 μM and 0.01 μM. The experiment was performed twice.
In subsequent experiments, compounds were tested, along with a number of approved cancer drugs (dasatinib and pazopanib) as described above. The acute lymphoblastic leukemia cell line CCRF-CEM was used throughout. In the assay plates, medium was added to eight empty wells (blank wells) and wells filled with cell suspension served as control wells. SI-values were then calculated for each compound-treated well as described above. All experiments were conducted twice and a new batch of plates was prepared for each experiment.
(§4) To obtain EC50-values, plates were prepared with compounds serially diluted in culture media to suitable concentration ranges for each compound. Thereafter cells were added at a density of 10 000 cells per well and FMCA was performed after 72 h. Data analysis was performed using GraphPadPrism software, where SI values for each concentration were plotted on a log scale and processed with non-linear regression and a standard sigmoidal dose-response model.

A2780 = assay: FMCA cytotoxicity, ovarian cancer cell line A2780; format: cell-based; conditions: Homo sapiens
Text: as §2, §3, §4
(§5) The compounds of the invention were also tested on further cancer cell lines related to ovarian cancer (A2780; see e.g. Hamilton, T. et al.; Semin. Oncol., 1984, 11, 285-298) and multidrug-resistant ovarian cancer (A2780/Adr). The known microtubule interfering agents vincristine and paclitaxel were included as references in the resistant and non-resistant ovarian cancer cell lines.

A2780/Adr = assay: FMCA cytotoxicity, multidrug-resistant ovarian cancer cell line A2780/Adr; format: cell-based
Text: as §2, §3, §4, §5

bovine tubulin protein = assay: Tubulin polymerization assay kit (Cytoskeleton Inc), fluorescence; format: biochemical; conditions: cell-free, example compounds at 1, 3 and 10 μM, controls at 3 μM, 60 mins, read-out: Inhibition of tubulin polymerization IC50
Procedure: Example compounds were further tested in a tubulin polymerization assay kit from Cytoskeleton Inc (Denver, Colo., USA). Polymerization is followed by fluorescence enhancement due to the incorporation of a fluorescent reporter into microtubules as polymerization occurs. Vincristine and paclitaxel at 3 μM were used as positive controls for tubulin polymerization inhibition and stabilisation, respectively. All compounds were dissolved in DMSO, which was used as solvent control. For experiments, example compounds (1, 3, and 10 μM) and control compounds (3 μM) were incubated with bovine tubulin protein in a cell-free environment and the fluorescence was then measured in a fluorometer (Fluostar Optima, BMG Labtech, Offenburg, Germany) at 360/450 nm every minute for a total of 60 mins.

| Colchicine-tubulin binding Percent of control [1] | pIC50 (bovine tubulin protein) | SMILES | threshold concentration of inhibitory effect on VEGF-induced cord formation ([2]; tested from 0.78 nM and upwards, dose dependent inhibitory effect) | disruption of established blood vessels (established vessels) | pEC50 [3] | pEC50 (A2780) | pEC50 (A2780/Adr) | inhibition of VEGF-induced cord formation ([2]; from the lowest tested dose 4.6 nM up to 10 μM) |
| --- | --- | --- | --- | --- | --- | --- | --- | --- |
| 64% of control |  | COc1ccc2[nH]cc(CCNc3nccc(Nc4cccc5c4cnn5C)n3)c2c1 [Example 7, N^2-[2-(5-methoxy-1H-indol-3-yl)ethyl]-N^4-(1-methylindazol-4-yl)pyrimidine-2,4-diamine] |  |  | 8.29 | 8.54 | 7.89 |  |
|  |  | Cc1nc(Nc2ncc(C(=O)Nc3c(C)cccc3Cl)s2)cc(N2CCN(CCO)CC2)n1 [Ref. 1, dasatinib, reference compound] |  |  | 5.01 |  |  |  |
| 77% of control |  | COc1ccc2[nH]cc(CCNc3nccc(Nc4ccc5cn(C)nc5c4)n3)c2c1 [Example 2, N^2-[2-(5-methoxy-1H-indol-3-yl)ethyl]-N^4-(2-methyl-2H-indazol-6-yl)pyrimidine-2,4-diamine] |  |  | 8.29 | 8.03 | 7.47 |  |
|  |  | CCOc1ccc2[nH]cc(CCNc3nccc(Nc4ccc5c(C)n(C)nc5c4)n3)c2c1 [Example 5, N^4-(2,3-dimethyl-2H-indazol-6-yl)-N^2-[2-(5-ethoxy-1H-indol-3-yl)ethyl]pyrimidine-2,4-diamine] |  |  | 8.26 | 8.07 | 6.82 |  |
| 94% of control | ~5.52 | COc1ccc2[nH]cc(CCNc3nccc(Nc4ccc5c(C)n(C)nc5c4)n3)c2c1 [Example 4, N^4-(2,3-dimethyl-2H-indazol-6-yl)-N^2-[2-(5-methoxy-1H-indo1-3-yl)ethyl]pyrimidine-2,4-diamine] |  |  | 7.96 | 7.47 | 6.43 |  |
| 68% of control | ~5.52 | CCOc1ccc2[nH]cc(CCNc3nccc(Nc4ccc5cn(C)nc5c4)n3)c2c1 [Example 3, N^2-[2-(5-ethoxy-1H-indol-3-yl)ethyl]-N^4-(2-methyl-2H-indazol-6-yl)pyrimidine-2,4-diamine] |  | concentration dependent disruption of blood vessels | 8.28 | 9.14 | 7.80 | 100% |
|  |  | CC(=O)O[C@H]1C(=O)[C@@]2(C)[C@H]([C@H](OC(=O)c3ccccc3)[C@]3(O)C[C@H](OC(=O)[C@H](O)[C@@H](NC(=O)c4ccccc4)c4ccccc4)C(C)=C1C3(C)C)[C@]1(OC(C)=O)CO[C@@H]1C[C@@H]2O [Paclitaxel, paclitaxel, reference compound] |  |  |  | 9.59 | 6.09 |  |
|  | > 5.52 | CC[C@]1(O)C[C@H]2CN(CCc3c([nH]c4ccccc34)[C@@](C(=O)OC)(c3cc4c(cc3OC)N(C=O)[C@H]3[C@@](O)(C(=O)OC)[C@H](OC(C)=O)[C@]5(CC)C=CCN6CC[C@]43[C@@H]65)C2)C1 [Vincristine, vincristine, reference compound] |  |  |  | 9.66 | 6.68 |  |
| 68% of control | 5.52 to 6.00 | CCOc1ccc2[nH]cc(CCNc3nccc(Nc4cccc5c4cnn5C)n3)c2c1 [Example 1] |  |  | 8.72 | 9.40 | 8.44 |  |
|  |  | Cc1ccc(Nc2nccc(N(C)c3ccc4c(C)n(C)nc4c3)n2)cc1S(N)(=O)=O [Ref. 2, pazopanib, reference compound] |  |  | 4.59 |  |  |  |
| 99% of control | 5.00 to 5.52 | CCOc1ccc2[nH]cc(CCNc3nc(C)cc(Nc4ccc5c(C)n(C)nc5c4)n3)c2c1 [Example 6, N^4-(2,3-dimethylindazol-6-yl)-N^2-[2-(5-ethoxy-1H-indol-3-yl)ethyl]-6-methyl-pyrimidine-2,4-diamine] |  |  | 7.47 | 7.33 | 6.41 |  |

| SMILES | Colchicine-tubulin binding Percent of control [1] | pIC50 (bovine tubulin protein) | threshold concentration of inhibitory effect on VEGF-induced cord formation ([2]; tested from 0.78 nM and upwards, dose dependent inhibitory effect) | disruption of established blood vessels (established vessels) | pEC50 [3] | pEC50 (A2780) | pEC50 (A2780/Adr) | inhibition of VEGF-induced cord formation ([2]; from the lowest tested dose 4.6 nM up to 10 μM) |
| --- | --- | --- | --- | --- | --- | --- | --- | --- |
| COc1ccc(/C=C\c2cc(OC)c(OC)c(OC)c2)cc1O [Combretastatin A4, combretastatin A4, reference compound] | 66% of control |  | 1.6 nM | concentration dependent disruption of blood vessels |  |  |  |  |
